Reference: patent EP0551675A1, “Oral hygiene compositions containing antiplaque agents” (UNILEVER N.V., priority 1991, dated 1993)
In brackets after ≈: the same amount, converted by molar mass.

Legend:
[1] = Foam height, Ross-Miles method; assay type: physicochemical; details: 45°C, water with 120 ppm hardness
Experimental: Since most of the foaming data on surfactants is typically obtained by the Ross-Miles method (Ross, J. and Miles, G.D., am. Soc. for Testing Material Method D1173-53 Philadelphia, PA. (1953); Oil & Soap (1958) 62:1260) the foaming ability of these surfactants was also acquired using this method.
In the Ross-Miles method, 200 mL of a solution of surfactant contained in a pipette of specified dimensions with a 2.9-mm-i.d. orifice is allowed to fall 90 cm onto 50 mL of the same solution contained in a cylindrical vessel maintained at a given temperature (often 60°C) by means of a water jacket. The height of the foam produced in the cylindrical vessel is read immediately after all the solution has run out of the pipette (initial foam height) and then again after a given amount of time (generally, 5 min).
Using this method, the foam production (measured initially) and foam stability (the height after 10 minutes) are reported. […] The foam height is represented in millimeters (mm).

[2] = test system: Porphyromonas gingivalis; assay: Antimicrobial activity determination (MIC); assay type: cell-based; details: BHI broth, aerobic, 37 degrees C, read-out: Minimimum Inhibitory Concentrations
Experimental: (§1) The antimicrobial activity of the targeted agents was assessed by determining the minimum inhibitory concentration (MIC). Pure cultures of various strains of oral bacterial species as indicated in Table 3 were combined with serial dilutions of the targeted agents in beef heart infusion broth (BHI); starting bacterial concentrations were approximately 1.0 x 10E6 colony forming units (CFU) per ml. The mixtures were incubated aerobically at 37 degrees C and the optical density (540 nm, path length 1cm) of the cultures was measured at 0.0, 24.0 and 48.0 hr using Bausch and Lomb Spec 20 variable wavelength spectrophotometer.

[3] = test system: Veillonella dispar; assay: Antimicrobial activity determination (MIC); assay type: cell-based; details: BHI broth, aerobic, 37 degrees C, read-out: Minimimum Inhibitory Concentrations
Experimental: as §1

[4] = test system: Neisseria subflava; assay: Antimicrobial activity determination (MIC); assay type: cell-based; details: BHI broth, aerobic, 37 degrees C, read-out: Minimimum Inhibitory Concentrations
Experimental: as §1

[5] = test system: Streptococcus sobrinus; assay: Antimicrobial activity determination (MIC); assay type: cell-based; details: BHI broth, aerobic, 37 degrees C, read-out: Minimimum Inhibitory Concentrations
Experimental: as §1

[6] = test system: Streptococcus sanguis; assay: Antimicrobial activity determination (MIC); assay type: cell-based; details: Streptococcus, Streptococcus sanguis; BHI broth, aerobic, 37 degrees C; read-out: Minimimum Inhibitory Concentrations
Experimental: as §1

[7] = test system: Actinomyces naeslundii; assay: Antimicrobial activity determination (MIC); assay type: cell-based; details: BHI broth, aerobic, 37 degrees C, read-out: Minimimum Inhibitory Concentrations
Experimental: as §1

[8] = test system: Prevotella intermedius; assay: Antimicrobial activity determination (MIC); assay type: cell-based; details: Prevotella intermedius; BHI broth, aerobic, 37 degrees C; read-out: Minimimum Inhibitory Concentrations
Experimental: as §1

[9] = test system: Candida albicans; assay: Antimicrobial activity determination (MIC); assay type: cell-based; details: BHI broth, aerobic, 37 degrees C, read-out: Minimimum Inhibitory Concentrations
Experimental: as §1

[10] = Krafft point of a 1% dispersion in water; assay type: physicochemical; details: 1% dispersion of the surfactant in water
Experimental: The temperature at and above which surfactants begin to form micelles instead of precipitates is referred to as Krafft point (Tk) and at this temperature the solubility of a surfactant becomes equal to its CMC.
Krafft point was measured by preparing a 1% dispersion of the surfactant in water. If the surfactant was soluble at room temperature, the solution was cooled to 0°C. […] If it precipitated out, the solution was slowly warmed with stirring in a water bath. The temperature at which the precipitate dissolved was determined to be the Krafft point.
If the Krafft point was above room temperature, the solution was first heated rapidly to dissolve all the surfactant. It was then cooled until precipitation occurred, and was then slowly warmed to determine the Krafft point described above.

Initial Height ([1]; foam production, measured initially): 160 mm
After 10 Minutes ([1]; foam stability, height after 10 minutes): 6 mm
MIC [2]: 30 µg/mL (≈ 57.1 µM)
MIC [3]: 60 µg/mL (≈ 114 µM)
MIC [4]: 250 µg/mL (≈ 476 µM)
MIC [5]: 125 µg/mL (≈ 238 µM)
MIC [6]: 125 µg/mL (≈ 238 µM)
MIC [7]: 60 µg/mL (≈ 114 µM)
MIC [8]: 250 µg/mL (≈ 476 µM)
MIC [9]: 125 µg/mL (≈ 238 µM)
Krafft Point [10]: 38 °C
Compound: CCCCCCCCCCCCNC(=O)[C@H](O)[C@@H](O)[C@H](O[C@@H]1O[C@H](CO)[C@H](O)[C@H](O)[C@H]1O)[C@H](O)CO [Dodecyl lactobionamide, N-dodecyl lactobionamide]
